# Source: patent US8546391B2, “Thiadiazole and oxadiazole derivatives, preparation thereof and therapeutic use thereof” (Sanofi, priority 2009, dated 2013)
# pIC50: −log10 of the molar value.
# Test system: not given
# Assay: not given
# Conditions: not given
row,melting point [°C],Structure (SMILES)
1,298,"CC(C)(C)c1nnc(NC(=O)c2ccc(C3CCC(CC(=O)O)CC3)cc2)s1 (stereo not drawn) [Compound 14, {4-[4-(5-tert-butyl[1,3,4]thiadiazol-2-ylcarbamoyl)phenyl]cyclohexyl}acetic acid]"
2,275,"O=C(O)CC1CCC(c2ccc(C(=O)Nc3nnc(COc4ccc(F)cc4)s3)cc2)CC1 (stereo not drawn) [Compound 24, (4-{4-[5-(4-fluorophenoxymethyl)[1,3,4]thiadiazol-2-ylcarbamoyl]phenyl}cyclohexyl)-acetic acid]"
3,> 250,"O=C(O)C[C@H]1CC[C@H](c2ccc(C(=O)Nc3nnc(N4CCOCC4)s3)cc2)CC1 [Compound 49, trans-{4-[4-(5-morpholin-4-yl[1,3,4]thiadiazol-2-ylcarbamoyl)phenyl]cyclohexyl}acetic acid]"
4,270,"O=C(Nc1nnc(CCC2CCCC2)s1)c1ccc(O[C@H]2CC[C@@H](C(=O)O)CC2)cc1 [Compound 57, cis-4-{4-[5-(2-cyclopentylethyl)[1,3,4]thiadiazol-2-ylcarbamoyl]phenoxy}cyclohexanecarboxylic acid]"
5,277,"O=C(Nc1nncs1)c1ccc(O[C@H]2CC[C@@H](C(=O)O)CC2)cc1 [Compound 61, cis-4-[4-([1,3,4]thiadiazol-2-ylcarbamoyl)phenoxy]cyclohexanecarboxylic acid]"
6,258,"O=C(O)C[C@H]1CC[C@H](c2ccc(C(=O)Nc3nnc([C@H]4C[C@@H](c5ccccc5)C4)s3)cc2)CC1 [Compound 75, trans-(4-{4-[5-(3-phenylcyclobutyl)[1,3,4]thiadiazol-2-ylcarbamoyl]phenyl}cyclohexyl)acetic acid]"
7,> 250,"O=C(O)C[C@H]1CC[C@H](c2ccc(C(=O)Nc3nnc(CC4CCC(O)CC4)s3)cc2)CC1 (stereo partly drawn) [Compound 79, trans-(4-{4-[5-(4-hydroxycyclohexylmethyl)[1,3,4]thiadiazol-2-ylcarbamoyl]phenyl}-cyclohexyl)acetic acid]"
8,217 to 223,"O=C(Nc1nnc(COCC2CCCO2)s1)c1ccc(O[C@H]2CC[C@H](C(=O)O)CC2)cc1 (stereo partly drawn) [Compound 82, trans-4-{4-[5-(tetrahydrofuran-2-ylmethoxymethyl)[1,3,4]thiadiazol-2-ylcarbamoyl]-phenoxy}cyclohexanecarboxylic acid]"
9,241,"O=C(O)C[C@H]1CC[C@H](c2ccc(C(=O)Nc3nnc(C[S+]([O-])Cc4ccccc4)s3)cc2)CC1 (stereo partly drawn) [Compound 95, trans-{4-[4-(5-phenylmethanesulfinylmethyl[1.3.4]thiadiazol-2-ylcarbamoyl)phenyl]cyclohexyl}acetic acid]"
10,247,"O=C(O)C[C@H]1CC[C@H](c2ccc(C(=O)Nc3nnc(C4CC(c5ccccc5)C4)s3)cc2)CC1 (stereo partly drawn) [Compound 97, trans-(4-{4-[5-(3-phenylcyclobutyl)[1,3,4]thiadiazol-2-ylcarbamoyl]phenyl}cyclohexyl)-acetic acid]"

# Second part, the molecule before the results:
row,Structure (SMILES),melting point [°C]
1,"O=C(O)CC1CCC(c2ccc(C(=O)Nc3nnc(C4CCCC4)s3)cc2)CC1 (stereo not drawn) [Compound 16, {4-[4-(5-cyclopentyl[1,3,4]thiadiazol-2-ylcarbamoyl)phenyl]cyclohexyl}acetic acid]",274
2,"O=C(O)CC1CCC(c2ccc(C(=O)Nc3nnc(CC4CCCC4)s3)cc2)CC1 (stereo not drawn) [Compound 17, {4-[4-(5-cyclopentylmethyl[1,3,4]thiadiazol-2-ylcarbamoyl)phenyl]cyclohexyl}acetic acid]",268
3,"CC(C)Cc1nnc(NC(=O)c2ccc(C3CCC(CC(=O)O)CC3)cc2)s1 (stereo not drawn) [Compound 19, {4-[4-(5-isobutyl[1,3,4]thiadiazol-2-ylcarbamoyl)phenyl]cyclohexyl}acetic acid]",263
4,"O=C(O)CC1CCC(c2ccc(C(=O)Nc3nnc(COc4ccccc4)s3)cc2)CC1 (stereo not drawn) [Compound 22, {4-[4-(5-phenoxymethyl[1,3,4]thiadiazol-2-ylcarbamoyl)phenyl]cyclohexyl}acetic acid]",261
5,"O=C(O)CC1CCC(c2ccc(C(=O)Nc3nnc(CCCc4ccc(F)cc4)s3)cc2)CC1 (stereo not drawn) [Compound 23, [4-(4-{5-[3-(4-fluorophenyl)propyl][1,3,4]thiadiazol-2-ylcarbamoyl}phenyl)cyclohexyl]-acetic acid]",229
6,"O=C(O)C=C1CCC(c2ccc(C(=O)Nc3nnc(Cc4ccccc4)s3)cc2)CC1 (stereo not drawn) [Compound 42, {4-[4-(5-benzyl[1,3,4]thiadiazol-2-ylcarbamoyl)phenyl]cyclohexylidene}acetic acid]",255
7,"O=C(Nc1nnc(Cc2ccccc2)s1)c1ccc(C2CCC3(CC2)CC3C(=O)O)cc1 (stereo not drawn) [Compound 43, 6-[4-(5-benzyl[1.3.4]thiadiazol-2-ylcarbamoyl)phenyl]spiro[2.5]-octane-1-carboxylic acid]",255
8,"O=C(O)COC1CCC(c2ccc(C(=O)Nc3nnc(Cc4ccccc4)s3)cc2)CC1 (stereo not drawn) [Compound 46, trans-{4-[4-(5-benzyl[1.3.4]thiadiazol-2-ylcarbamoyl)phenyl]cyclohexyloxy}acetic acid]",250 to 255
9,"O=C(O)C[C@H]1CC[C@H](c2ccc(C(=O)Nc3nnc(CCN4CCOCC4)s3)cc2)CC1 [Compound 48, trans-(4-{4-[5-(2-morpholin-4-ylethyl)[1,3,4]thiadiazol-2-ylcarbamoyl]phenyl}cyclohexyl)acetic acid]",213
10,"O=C(O)C[C@H]1CC[C@H](c2ccc(C(=O)Nc3nnc(NC(=O)Cc4ccccc4)s3)cc2)CC1 [Compound 76, {4-[4-(5-phenylacetylamino[1,3,4]thiadiazol-2-ylcarbamoyl)phenyl]cyclohexyl}acetic acid]",291
11,"O=C(O)C[C@H]1CC[C@H](c2ccc(C(=O)Nc3nnc(Cc4cc(F)cc(F)c4)s3)cc2)CC1 [Compound 78, trans-(4-{4-[5-(3,5-difluorobenzyl)[1,3,4]thiadiazol-2-ylcarbamoyl]phenyl}cyclohexyl)-acetic acid]",294
12,"O=C(O)C[C@H]1CC[C@H](Oc2ccc(C(=O)Nc3nnc(Cc4ccccc4)s3)cc2)CC1 [Compound 81, trans-{4-[4-(5-benzyl[1,3,4]thiadiazol-2-ylcarbamoyl)phenoxy]cyclohexyl}acetic acid]",230 to 250
13,"O=C(O)C[C@H]1CC[C@H](c2ccc(C(=O)Nc3nnc(CCC(=O)c4ccccc4)s3)cc2)CC1 [Compound 83, trans-(4-{4-[5-(3-oxo-3-phenylpropyl)[1,3,4]thiadiazol-2-ylcarbamoyl]phenyl}cyclohexyl)acetic acid]",240 to 268
14,"O=C(O)C[C@H]1CC[C@H](c2ccc(C(=O)Nc3nnc(CCC(O)c4ccccc4)s3)cc2)CC1 (stereo partly drawn) [Compound 84, (4-{4-[5-(3-hydroxy-3-phenylpropyl)[1.3.4]thiadiazol-2-ylcarbamoyl]-phenyl}cyclohexyl)acetic acid]",239 to 242
15,"O=C(Nc1nnc(-c2cccc(Cl)c2)s1)c1ccc([C@H]2CC[C@H]([C@H]3C[C@@H]3C(=O)O)CC2)cc1 [Compound 85, trans-(1S,2R)-2-(4-{4-[5-(3-chlorophenyl)[1,3,4]thiadiazol-2-ylcarbamoyl]phenyl}cyclohexyl)cyclopropanecarboxylic acid]",> 250
16,"O=C(O)C[C@H]1CC[C@H](c2ccc(C(=O)Nc3nnc(NC4CCCC4)s3)cc2)CC1 [Compound 92, trans-{4-[4-(5-cyclopentylamino[1,3,4]thiadiazol-2-ylcarbamoyl)phenyl]cyclohexyl}-acetic acid]",335
17,"O=C(C[C@H]1CC[C@H](c2ccc(C(=O)Nc3nnc(Cc4ccccc4)s3)cc2)CC1)NCC1COCCO1 (stereo partly drawn) [Compound 93, trans-N-(5-benzyl[1,3,4]thiadiazol-2-yl)-4-(4-{[([1,4]dioxan-2-ylmethyl)carbamoyl]-methyl}cyclohexyl)benzamide]",281
18,"O=C(O)C[C@H]1CC[C@H](c2ccc(C(=O)Nc3nnc(CSCc4ccccc4)s3)cc2)CC1 [Compound 96, trans-{4-[4-(5-benzylsulfanylmethyl[1,3,4]thiadiazol-2-ylcarbamoyl)phenyl]cyclohexyl}-acetic acid]",234
19,"O=C(CCc1nnc(NC(=O)c2ccc(O[C@H]3CC[C@@H](C(=O)O)CC3)cc2)s1)c1ccccc1 [Compound 102, cis-4-{4-[5-(3-oxo-3-phenylpropyl)[1,3,4]thiadiazol-2-ylcarbamoyl]phenoxy}cyclohexanecarboxylic acid]",220 to 260

# Test system: triglyceride biosynthesis
# Assay: in vitro inhibitory activity on triglyceride biosynthesis, cell test ([14C] glycerol incorporation in Chang liver cells)
# Type: cell-based
# Conditions: compounds incubated 30 minutes, then [14C] glycerol incorporation for 6 hours, read-out: inhibitory activity on triglyceride biosynthesis, concentration that inhibits 50% of the activity
# Protocol: These trials consisted in measuring the in vitro inhibitory activity of the compounds of the invention on a cell test.
# Chang liver cells at 80% confluence are detached with trypsin-EDTA, 4 ml per 175 cm^2 flask. After centrifugation at 1300×g for 5 minutes, the cell pellet is washed once with PBS and then resuspended in whole medium. The number of cells and their viability are determined on Mallassez cells via the exclusion method with trypan blue.
# 150 000 cells are inoculated per well into a 24-well plate for a minimum of 3 hours in DMEM medium 4.5 g/l of glucose supplemented with 10% FCS and with antibiotics, and are maintained at 37° C. in an incubator with CO2 (5%).
# After 3 hours, the cells have adhered, the medium is removed and replaced overnight with DMEM medium 4.5 g/l of glucose with 2% of BSA/oleate.
# After culturing for 18 hours without serum, the test compounds are incubated for 30 minutes ([…], 30, 100, 300 and 1000 nM) with the cells, followed by addition of [^14C] glycerol (0.4 μCi/ml/well) for an incorporation time of 6 hours.
# The supernatant is drawn off and the cells are recovered by treatment with trypsin-EDTA, 100 μl/well, for 5 minutes at 37° C. This cell suspension is then recovered in an Eppendorf tube and is washed with twice 500 μl of PBS. The centrifugation at 1300×g for 5 minutes allows recovery of the cell pellets, which may be frozen at −20° C. In order to extract the lipids from the cell pellet, 400 μl of a methanol/dichloromethane/trifluoroacetic acid mixture (50/50/0.1%) is used to resuspend the cells. Next, the cell membranes are destroyed by sonication on a water bath, for 30 minutes. The samples are filtered through a 0.45 μm filtered and then injected onto a C18 HPLC column of 4.6×75 mm, 3 μm with a mobile phase of 5% (H2O+0.1% TFA), 70% methanol, 25% dichloromethane, with a flow rate of 1.5 ml/minute. The radioactivity is measured using a Flo One C625TR machine (Perkin-Elmer).
# The inhibitory activity on triglyceride biosynthesis is given by the concentration that inhibits 50% of the activity.
row,Structure (SMILES),pIC50
1,"O=C(O)C[C@H]1CC[C@H](c2ccc(C(=O)Nc3nnc(COC4CCCC4)s3)cc2)CC1 [Compound 37, trans-{4-[4-(5-cyclopentyloxymethyl[1.3.4]thiadiazol-2-ylcarbamoyl)-phenyl]cyclohexyl}acetic acid]",7.74
